The values that follow come from ChEMBL document CHEMBL1201862, “PubChem BioAssay data set” (2004).

Among the test systems are A498; CCRF-CEM; COLO 205; HCT-15; K562; KM12; LOX IMVI; M14; MDA-MB-435; MOLT-4; NCI-H460; OVCAR-3; RPMI-8226; SF-268; SK-MEL-28; SK-MEL-5; SK-OV-3; T47D; TK-10; UACC-62.
What all share (test): growth of human tumour cells (NCI), 48 h

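A five-concentration, 48-hour dose response in 96-well plates underlies each endpoint, interpolated linearly between surrounding concentrations. The concentration for 50% growth inhibition is given as GI50.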 Calls of active or inactive are those of the source. Cut-off read from the data, not from the text of the source: active = GI50 up to about 1.1 µM and inactive = higher. Bounds are passed on as bounds.

Turning to `CC1=CC(=O)C(C(O)(C(F)(F)F)C(F)(F)F)C(C)(C)C1` (stereo unspecified), the GI50 is > 10 µM (inactive) in the test with A498; > 10 µM (inactive) in the test with CCRF-CEM; > 10 µM (inactive) in the test with COLO 205; greater than 10 µM with HCT-15; > 10 µM (inactive) in the test on K562; > 10 µM (inactive) with KM12. The GI50 in the test on LOX IMVI, in the test on M14, in the test with MDA-MB-435, with MOLT-4, with NCI-H460 and in the test on OVCAR-3 was > 10 µM (inactive) throughout. Moreover, the GI50 with RPMI-8226, with SF-268, in the test with SK-MEL-28, in the test on SK-MEL-5, in the test on SK-OV-3 and in the test with T47D was > 10 µM (inactive) in each case. The GI50 in the test on TK-10 and in the test with UACC-62 was > 10 µM (inactive) throughout.
On to `Cc1ccc(S(=O)(=O)OI(O)CC(F)(F)F)cc1`, for which the GI50 in the test with A498 was > 100 µM (inactive); in the test with CCRF-CEM, > 100 µM (inactive); in the test with COLO 205 it was > 100 µM (inactive); in the test with HCT-15, greater than 100 µM; with K562, > 100 µM (inactive); with KM12, > 100 µM (inactive). Further, the GI50 in the test with LOX IMVI, in the test on M14, in the test on MDA-MB-435, in the test on MOLT-4, in the test on NCI-H460 and with OVCAR-3 was > 100 µM (inactive) throughout. Also, the GI50 in the test on RPMI-8226, in the test on SF-268, in the test on SK-MEL-28, with SK-MEL-5, with SK-OV-3 and in the test on T47D was > 100 µM (inactive) throughout. In addition, the GI50 in the test with TK-10 and with UACC-62 was > 100 µM (inactive) each time.
`OC(Cc1cnnc2ccccc12)C(Cl)(Cl)Cl` (stereo unspecified): the GI50 was > 10 µM (inactive) in the test with A498; > 10 µM (inactive) in the test with CCRF-CEM; > 10 µM (inactive) with COLO 205; greater than 10 µM with HCT-15; > 10 µM (inactive) in the test with K562; > 10 µM (inactive) with KM12. Moreover, the GI50 with LOX IMVI, in the test with M14, in the test with MDA-MB-435, in the test with MOLT-4, with NCI-H460 and in the test on OVCAR-3 was > 10 µM (inactive) in each case. The GI50 in the test on RPMI-8226, with SF-268, in the test with SK-MEL-28, in the test with SK-MEL-5, with SK-OV-3 and in the test on T47D was > 10 µM (inactive) in each case. Further, the GI50 in the test on TK-10 and in the test with UACC-62 was > 10 µM (inactive) throughout.
As for `O=C(O)CNc1ccc2c(c1)Cc1cc(Br)ccc1-2`, the GI50 in the test on A498 is 22 µM (inactive); with CCRF-CEM, 22.1 µM (inactive); with COLO 205, 21.1 µM (inactive); with HCT-15 it was 31.1 µM; with K562 it was 9.29 µM (inactive); with KM12 it was 9.57 µM (inactive). The GI50 with LOX IMVI was 26.6 µM (inactive); in the test with M14 it was 21.8 µM (inactive); in the test on MDA-MB-435, 15.3 µM (inactive); in the test with MOLT-4 it was 0.746 µM (active); in the test with NCI-H460, 21.8 µM (inactive); in the test with OVCAR-3, 28.5 µM (inactive). The GI50 is 19.9 µM (inactive) in the test with RPMI-8226; 28.5 µM (inactive) with SF-268; 31.3 µM (inactive) in the test with SK-MEL-28; 6.55 µM (inactive) in the test on SK-MEL-5; 26.5 µM (inactive) in the test on SK-OV-3; 20.4 µM (inactive) in the test on T47D. Besides, the figures for the GI50 in the test with TK-10 and in the test with UACC-62 were 31.1 µM (inactive) and 17.4 µM (inactive), respectively.
On to `COc1ccc(/C=C2\OC(=O)C(Cl)=C2c2ccc(OC)c(Cl)c2)cc1`, for which the GI50 was 17.7 µM (inactive) in the test with A498; 29.2 µM (inactive) in the test on CCRF-CEM; 40.4 µM (inactive) with COLO 205; 45 µM in the test on HCT-15; 56.1 µM (inactive) with K562; 28.7 µM (inactive) in the test on KM12. In addition, the GI50 is 32.1 µM (inactive) in the test on LOX IMVI; 25.4 µM (inactive) in the test with M14; 23.8 µM (inactive) in the test on MDA-MB-435; 48.9 µM (inactive) in the test with MOLT-4; 22.6 µM (inactive) with NCI-H460; 20 µM (inactive) with OVCAR-3. The GI50 is 24.9 µM (inactive) with RPMI-8226; 17.3 µM (inactive) in the test with SF-268; 35.7 µM (inactive) in the test with SK-MEL-28; 17.3 µM (inactive) with SK-MEL-5; 33.9 µM (inactive) with SK-OV-3; 32.1 µM (inactive) with T47D. For the same compound, the GI50 in the test on TK-10 was 21.7 µM (inactive); in the test with UACC-62, 26.5 µM (inactive).
In the case of `COC(=O)CC[N+]1([O-])CC1`, the GI50 is 33.2 µM (inactive) with A498; > 100 µM (inactive) in the test on CCRF-CEM; > 100 µM (inactive) with COLO 205; greater than 100 µM in the test on HCT-15; > 100 µM (inactive) in the test with KM12; > 100 µM (inactive) with LOX IMVI. In addition, the GI50 with M14, with MDA-MB-435, in the test on MOLT-4, in the test with NCI-H460, in the test on RPMI-8226 and in the test on SF-268 was > 100 µM (inactive) throughout. Besides, the GI50 in the test with SK-MEL-28, in the test with SK-MEL-5, in the test on SK-OV-3, with T47D, with TK-10 and with UACC-62 was > 100 µM (inactive) in each case.
As for `COc1cc([C@@H]2c3cc4c(cc3[C@@H](Nc3ccc([N+](=O)[O-])cc3C(=O)c3ccccc3)[C@H]3COC(=O)[C@H]23)OCO4)cc(OC)c1OC`, the GI50 was 0.415 µM (active) in the test on A498; 0.391 µM (active) in the test on CCRF-CEM; 0.293 µM (active) in the test with COLO 205; 0.269 µM in the test with HCT-15; 0.156 µM (active) with K562; 0.266 µM (active) in the test with KM12. Also, the GI50 was 0.281 µM (active) with LOX IMVI; 0.281 µM (active) with M14; 0.071 µM (active) in the test on MDA-MB-435; 0.306 µM (active) in the test with MOLT-4; 0.258 µM (active) with NCI-H460; 0.434 µM (active) in the test with OVCAR-3. The GI50 with RPMI-8226 was 0.394 µM (active); with SF-268 it was 0.472 µM (active); in the test with SK-MEL-5 it was 0.2 µM (active); in the test on SK-OV-3, 0.46 µM (active); with T47D, > 100 µM (inactive); with TK-10, > 100 µM (inactive). The GI50 in the test on UACC-62 was 0.164 µM (active).
`Cc1ccc(S(=O)(=O)N/N=C/C(Br)=C(/Br)C(=O)O)cc1`: the GI50 in the test with A498 is 16.4 µM (inactive); in the test with CCRF-CEM, 1.42 µM (inactive); in the test with COLO 205 it was 3.44 µM (inactive); in the test on HCT-15, 2.19 µM; in the test on KM12 it was 10.6 µM (inactive); in the test on LOX IMVI, 3.03 µM (inactive). Further, the GI50 in the test on M14 is 4.53 µM (inactive); in the test with MDA-MB-435, 4.43 µM (inactive); in the test on MOLT-4 it was 0.826 µM (active); in the test on NCI-H460, 17.5 µM (inactive); in the test with OVCAR-3, 6.97 µM (inactive); in the test on RPMI-8226, 1.66 µM (inactive). Moreover, the GI50 was 11.4 µM (inactive) in the test with SF-268; 2.94 µM (inactive) in the test with SK-MEL-28; 11.7 µM (inactive) with SK-MEL-5; 16.4 µM (inactive) with SK-OV-3; 4.57 µM (inactive) with T47D; 7.69 µM (inactive) in the test on TK-10. Also, in the test on UACC-62, the GI50 is 8.17 µM (inactive).
